Measured values taken from ChEMBL document CHEMBL1201862, “PubChem BioAssay data set” (2004).
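Test compounds were applied to cells in 96-well plates for 48 hours at 5 doses. Abbreviation: GI50, concentration required for 50% inhibition of growth.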 Calls of active or inactive are those of the source. Rule as the data show it: active = GI50 up to about 1.1 µM and inactive = higher.

Key:
Experiment in all cases: NCI anticancer screen, dose series, 48 h
786-0 = tested on: 786-0
A549 = tested on: A549
ACHN = tested on: ACHN
CAKI-1 = tested on: CAKI-1
COLO 205 = tested on: COLO 205
DLD-1 = tested on: DLD-1
DMS-273 = tested on: DMS-273
EKVX = tested on: EKVX
HCC 2998 = tested on: HCC 2998
HCT-15 = tested on: HCT-15
HOP-62 = tested on: HOP-62
HOP-92 = tested on: HOP-92
HT-29 = tested on: HT-29
IGROV-1 = tested on: IGROV-1
KM-20L2 = tested on: KM-20L2
KM12 = tested on: KM12
LOX IMVI = tested on: LOX IMVI
LXFL 529 = tested on: LXFL 529
M14 = tested on: M14
M19-MEL = tested on: M19-MEL
NCI-H23 = tested on: NCI-H23
NCI-H460 = tested on: NCI-H460
NCI-H522 = tested on: NCI-H522
OVCAR-3 = tested on: OVCAR-3
OVCAR-4 = tested on: OVCAR-4
OVCAR-8 = tested on: OVCAR-8
SF-268 = tested on: SF-268
SF-295 = tested on: SF-295
SK-MEL-28 = tested on: SK-MEL-28
SK-MEL-2 = tested on: SK-MEL-2
SK-MEL-5 = tested on: SK-MEL-5
SK-OV-3 = tested on: SK-OV-3
SN12C = tested on: SN12C
SNB-19 = tested on: SNB-19
SW-620 = tested on: SW-620
TK-10 = tested on: TK-10
U-251 = tested on: U-251
UACC-257 = tested on: UACC-257
UACC-62 = tested on: UACC-62
UO-31 = tested on: UO-31
A498 = tested on: A498
CCRF-CEM = tested on: CCRF-CEM
DMS-114 = tested on: DMS-114
HCT-116 = tested on: HCT-116
HL-60 = tested on: HL-60
HOP-18 = tested on: HOP-18
K562 = tested on: K562
MOLT-4 = tested on: MOLT-4
Malme-3M = tested on: Malme-3M
OVCAR-5 = tested on: OVCAR-5
RXF 393 = tested on: RXF 393
SF-539 = tested on: SF-539
SNB-78 = tested on: SNB-78
SR = tested on: SR

Question: For `Cc1ccc(C(N)=O)cc1/N=N/N(C)C`, which GI50 (786-0) is on record?
Answer: > 100 µM (inactive)

Question: What about the GI50 (A549) of the same compound?
Answer: > 100 µM (inactive)

Question: What about the GI50 (ACHN) of the same compound?
Answer: > 100 µM (inactive)

Question: And the GI50 (CAKI-1)?
Answer: > 100 µM (inactive)

Question: What about the GI50 (COLO 205) of the same compound?
Answer: > 100 µM (inactive)

Question: What about the GI50 (DLD-1) of the same compound?
Answer: > 100 µM (inactive)

Question: What about the GI50 (DMS-273) of the same compound?
Answer: > 100 µM (inactive)

Question: And the GI50 (EKVX)?
Answer: > 100 µM (inactive)

Question: What about the GI50 (HCC 2998) of the same compound?
Answer: > 100 µM (inactive)

Question: What about the GI50 (HCT-15) of the same compound?
Answer: > 100 µM

Question: What about the GI50 (HOP-62) of the same compound?
Answer: > 100 µM (inactive)

Question: And the GI50 (HOP-92)?
Answer: > 100 µM (inactive)

Question: What about the GI50 (HT-29) of the same compound?
Answer: > 100 µM (inactive)

Question: And the GI50 (IGROV-1)?
Answer: > 100 µM (inactive)

Question: And the GI50 (KM-20L2)?
Answer: > 100 µM (inactive)

Question: What about the GI50 (KM12) of the same compound?
Answer: > 100 µM (inactive)

Question: And the GI50 (LOX IMVI)?
Answer: > 100 µM (inactive)

Question: What about the GI50 (LXFL 529) of the same compound?
Answer: > 100 µM (inactive)

Question: And the GI50 (M14)?
Answer: > 100 µM (inactive)

Question: What about the GI50 (M19-MEL) of the same compound?
Answer: > 100 µM (inactive)

Question: And the GI50 (NCI-H23)?
Answer: > 100 µM (inactive)

Question: And the GI50 (NCI-H460)?
Answer: > 100 µM (inactive)

Question: What about the GI50 (NCI-H522) of the same compound?
Answer: > 100 µM (inactive)

Question: What about the GI50 (OVCAR-3) of the same compound?
Answer: > 100 µM (inactive)

Question: What about the GI50 (OVCAR-4) of the same compound?
Answer: > 100 µM (inactive)

Question: What about the GI50 (OVCAR-8) of the same compound?
Answer: > 100 µM (inactive)

Question: And the GI50 (SF-268)?
Answer: > 100 µM (inactive)

Question: And the GI50 (SF-295)?
Answer: > 100 µM (inactive)

Question: And the GI50 (SK-MEL-28)?
Answer: > 100 µM (inactive)

Question: What about the GI50 (SK-MEL-2) of the same compound?
Answer: > 100 µM (inactive)

Question: And the GI50 (SK-MEL-5)?
Answer: > 100 µM (inactive)

Question: What about the GI50 (SK-OV-3) of the same compound?
Answer: > 100 µM (inactive)

Question: What about the GI50 (SN12C) of the same compound?
Answer: > 100 µM (inactive)

Question: What about the GI50 (SNB-19) of the same compound?
Answer: > 100 µM (inactive)

Question: And the GI50 (SW-620)?
Answer: > 100 µM (inactive)

Question: And the GI50 (TK-10)?
Answer: > 100 µM (inactive)

Question: What about the GI50 (U-251) of the same compound?
Answer: > 100 µM (inactive)

Question: And the GI50 (UACC-257)?
Answer: > 100 µM (inactive)

Question: And the GI50 (UACC-62)?
Answer: > 100 µM (inactive)

Question: What about the GI50 (UO-31) of the same compound?
Answer: > 100 µM (inactive)

Question: With `CCCP1(=O)C=C(C)C(=C(Cl)Cl)C(C)=C1` (centres undefined) as the compound, how does the GI50 (786-0) read?
Answer: 44.5 µM (inactive)

Question: And the GI50 (A498)?
Answer: 68.9 µM (inactive)

Question: What about the GI50 (A549) of the same compound?
Answer: 33.7 µM (inactive)

Question: What about the GI50 (ACHN) of the same compound?
Answer: 44.3 µM (inactive)

Question: What about the GI50 (CCRF-CEM) of the same compound?
Answer: 39.5 µM (inactive)

Question: What about the GI50 (COLO 205) of the same compound?
Answer: 36.1 µM (inactive)

Question: And the GI50 (DLD-1)?
Answer: 67.3 µM (inactive)

Question: And the GI50 (DMS-114)?
Answer: 36.1 µM (inactive)

Question: What about the GI50 (EKVX) of the same compound?
Answer: 83 µM (inactive)

Question: And the GI50 (HCC 2998)?
Answer: 32.3 µM (inactive)

Question: And the GI50 (HCT-116)?
Answer: 41.2 µM (inactive)

Question: What about the GI50 (HCT-15) of the same compound?
Answer: 30.7 µM

Question: What about the GI50 (HL-60) of the same compound?
Answer: 21.6 µM (inactive)

Question: What about the GI50 (HOP-18) of the same compound?
Answer: > 100 µM (inactive)

Question: And the GI50 (HOP-62)?
Answer: 49.3 µM (inactive)

Question: And the GI50 (HOP-92)?
Answer: 24.2 µM (inactive)

Question: And the GI50 (HT-29)?
Answer: 43 µM (inactive)

Question: And the GI50 (IGROV-1)?
Answer: 70 µM (inactive)

Question: What about the GI50 (K562) of the same compound?
Answer: 30.8 µM (inactive)

Question: What about the GI50 (KM-20L2) of the same compound?
Answer: 18.3 µM (inactive)

Question: And the GI50 (KM12)?
Answer: 24.2 µM (inactive)

Question: And the GI50 (LXFL 529)?
Answer: 30.1 µM (inactive)

Question: And the GI50 (M14)?
Answer: 33.7 µM (inactive)

Question: And the GI50 (M19-MEL)?
Answer: 47.9 µM (inactive)

Question: What about the GI50 (MOLT-4) of the same compound?
Answer: 31 µM (inactive)

Question: And the GI50 (Malme-3M)?
Answer: 25.7 µM (inactive)

Question: What about the GI50 (NCI-H23) of the same compound?
Answer: 34.7 µM (inactive)

Question: And the GI50 (NCI-H460)?
Answer: 37.4 µM (inactive)

Question: What about the GI50 (NCI-H522) of the same compound?
Answer: 18.3 µM (inactive)

Question: What about the GI50 (OVCAR-3) of the same compound?
Answer: 84.9 µM (inactive)

Question: And the GI50 (OVCAR-4)?
Answer: > 100 µM (inactive)

Question: What about the GI50 (OVCAR-5) of the same compound?
Answer: > 100 µM (inactive)

Question: And the GI50 (OVCAR-8)?
Answer: 37.9 µM (inactive)

Question: And the GI50 (RXF 393)?
Answer: 25.9 µM (inactive)

Question: And the GI50 (SF-268)?
Answer: 25.9 µM (inactive)

Question: And the GI50 (SF-295)?
Answer: 35.2 µM (inactive)

Question: What about the GI50 (SF-539) of the same compound?
Answer: 37.3 µM (inactive)

Question: And the GI50 (SK-MEL-28)?
Answer: 44.1 µM (inactive)

Question: What about the GI50 (SK-MEL-2) of the same compound?
Answer: 16.3 µM (inactive)

Question: What about the GI50 (SK-MEL-5) of the same compound?
Answer: 24.1 µM (inactive)

Question: What about the GI50 (SN12C) of the same compound?
Answer: 24.6 µM (inactive)

Question: And the GI50 (SNB-78)?
Answer: 57.3 µM (inactive)

Question: And the GI50 (SR)?
Answer: 24.5 µM (inactive)

Question: And the GI50 (SW-620)?
Answer: 32.1 µM (inactive)

Question: And the GI50 (TK-10)?
Answer: > 100 µM (inactive)

Question: What about the GI50 (U-251) of the same compound?
Answer: > 100 µM (inactive)

Question: What about the GI50 (UACC-257) of the same compound?
Answer: 64.4 µM (inactive)

Question: What about the GI50 (UACC-62) of the same compound?
Answer: 44 µM (inactive)

Question: And the GI50 (UO-31)?
Answer: 46.7 µM (inactive)
